{"source": "patent US12710369B2", "about": "“Optical real-time biosensor” (CZ Biohub SF, LLC, priority 2018, dated 2026)", "key": {"[1]": {"test_system": "serotonin aptamers", "experiment": "real-time measurement with one-color optical biosensor system, fiber-tethered signal-off serotonin aptamer switch", "assay_type": "binding", "settings": "specificity of 5-HT signal-off aptamer optical probe towards other molecules", "excerpt": "In some embodiments, the optical biosensor system was used to measure other molecules, such as dopamine (DA) and serotonin ([…]). The aptamers for DA and 5-TH are converted into aptamer-switches. (See, e.g., Nakatsuka et al., Aptamer-field-effect Transistors Overcome Debye Length Limitations for Small-molecule Sensing, Science 362: 319-324 (2018).) Higher sensitivity and better photostability were achieved through improvements in detector alignment.\nTo evaluate the performance of the optical biosensor system in a biological matrix, spiked concentration of 5-HT and DA in an artificial cerebrospinal fluid (aCSF) or a cerebrospinal fluid (CSF), and in brain slices mediums were measured using a one-color optical biosensor system.\nThe optical biosensor system 2400 includes a laser source 2410, an optical beam splitter 2420, and a detector 2430. The optical biosensor system 2400 may include an optional battery for providing power to the laser source 2410 and the detector 2430. […]\nMolecular switches (not shown) are attached to the second end 2466 of the optical waveguide 2462. […] When target molecules, such as dopamine or serotonin, bind to the molecular switches, the molecular switches may emit fluorescence light. The fluorescence light may have a second wavelength that is longer than the first wavelength of the excitation light. The emitted fluorescence light may be coupled back into the optical waveguide 2462 through the second end 2466 and be propagated through the optical waveguide 2462 to be emitted from the first end 2464.\nThe fluorescence light emitted from the […] of the optical waveguide 2462 may be collimated by the lens 2440 and incident on the optical beam splitter 2420. The optical beam splitter 2420 is configured to transmit the fluorescence light. In some embodiments, the optical beam splitter 2420 may be a dichroic beam splitter configured to have a high reflectance value for the first wavelength of the excitation light, and a high transmittance value for the second wavelength of the fluorescence light. […]"}, "[2]": {"test_system": "serotonin aptamers", "experiment": "specificity test of the aptamers: MDMA spiked in control sample in the absence of brain slice (rig bath)", "assay_type": "binding", "settings": "excess of MDMA (30 μM), no brain slice, oxygenated aCSF 37° C., 3 ml/min", "experimental": "The stability of the fluorescence signal over time is characterized in a bath system (rig) under the appropriate conditions favorable for live brain slice measurements. This includes keeping the temperature of the bath at 37° C., with oxygenated artificial CSF (aCSF) flown in the chamber at a rate of 3 ml/min. A stable fluorescence signal (counts) was observed over tens of minutes under continuous laser excitation, which confirmed the robustness of the aptamers, fluorophores and the surface under such conditions. To test the specificity of the aptamers, an excess of MDMA (30 μM) was spiked in a control sample in the absence of brain slice."}, "[3]": {"test_system": "live brain slices (nucleus accumbens)", "experiment": "optical fiber sensor in live brain slices, endogenous release of serotonin upon MDMA stimulation", "assay_type": "cell-based, mouse", "design": "dose or concentration left out as unconfirmed", "settings": "following infusion of MDMA for 10 minutes; 532 nm excitation; NAc", "excerpt": "According to some embodiments, to measure endogenous release of DA and 5-HT upon drug (MDMA) stimulation with the optical biosensor in live brain slices, a rig system and a brain slice recording chamber are installed in a lab with all the necessary components, including: a gravity-perfusion system alimented by peristatic pump, temperature controller, oxygen lines, microscope, camera and micro-stage. It was noted that black curtains covering the entire rig system were necessary to minimize the background and fluctuations from room-light.\nInitially, the optical fiber was successfully inserted in a brain slice without compromising or breaking the micron-size tip of the optical fiber. However, due to mechanical contact, the fluorescence signal was mostly lost during the insertion process. Subsequently, the fiber was protected by a capillary tube from mechanical breakage during the transfer processes onto the rig holder and bath. […]\nAfter confirming the sensitivity, robustness, and specificity of the aptamer sensor in the rig system, test measurements were performed with live brain slices. […] After approximately 10 minutes of baseline measurements (aCSF) to determine the stability of the fluorescence signal in the brain environment over time and estimate the photobleaching rate, drug infusion at […] was started for 10 minutes. […]"}}}
{"smiles": "O=C(O)Cc1c[nH]c2ccc(O)cc12", "note": "[5-hydroxyindoleacetic acid]", "values": [{"measurement": "sensor responses (fluorescence signal)", "setting": "[1]", "result": "negligible"}]}
{"smiles": "CNC(C)Cc1ccc2c(c1)OCO2", "note": "(centres unmarked) [MDMA]", "values": [{"measurement": "change in the fluorescence signal", "setting": "[2]", "result": "Minimal change"}, {"measurement": "fluorescence intensity, red channel (Cy5) and green channel (Cy3)", "setting": "[3]", "result": "clear drop in the fluorescence intensity"}]}
{"smiles": "NCCc1ccc(O)c(O)c1", "note": "[dopamine]", "values": [{"measurement": "sensor responses (fluorescence signal)", "setting": "[1]", "result": "negligible"}]}
{"smiles": "CNC[C@H](O)c1ccc(O)c(O)c1", "note": "[epinephrine]", "values": [{"measurement": "sensor responses (fluorescence signal)", "setting": "[1]", "result": "negligible"}]}
